Literature values in US9504677B2, “Substituted N-aryl pyridinones” (Auspex Pharmaceuticals, Inc., priority 2007, dated 2016).

Legend:
[1] = humans

Which DNA synthesis (myometrial cells) does the source give for `Cc1ccc(=O)n(-c2ccccc2)c1` [Pirfenidone, 5-methyl-1-phenyl-1H-pyridin-2-one] here?
Its DNA synthesis is “inhibits DNA synthesis”.

And the DNA synthesis (leiomyoma cells)?
Its DNA synthesis is “inhibits DNA synthesis”.

What about the “efficacy in rodent disease models” value (rodent disease models) of the same compound?
The value was “effective”.

What about the half-life [1] of the same compound?
The half-life was “very short”.
